{"source": "patent EP4810052A2", "about": "“HCRHR2 SELECTIVE POLYPEPTIDES” (Gubra A/S, priority 2023, dated 2026)", "key": {"[1]": {"assay": "Size exclusion chromatography for high molecular weight products (HMWP)", "type": "physicochemical", "details": "for HMWP formation (SEC analysis) T14-T0 (%): 14 days; for HMWP formation (SEC analysis) T28-T0 (%): 28 days", "method": "Dissolved samples were incubated for at least 2 h at room temperature on a rocking table. The main peak purity at time zero (T0) was determined using reversed phase chromatography. The samples were incubated at 40°C for 14 days (T14) and 28 days (T28). The samples were analyzed with reversed phase chromatography and size exclusion chromatography.\nSize exclusion chromatography (SEC) was used as an analysis for the formation of high molecular weight products (HMWP, covalent dimers, trimers etc.,). SEC analyses was performed on Thermo Dionex Ultimate UHPLC system with UV detection at 215 nm) equipped with a SEC column (Waters BEH 125Å, 1.7 µm, 300mm x 4.6). Analysis was performed by isocratic elution using 60% buffer B (0.1% TFA in 5:95 H2O: acetonitrile) in buffer A (0.1% TFA in 95:5 H2O: acetonitrile) at a column temperature of 60° C over 20 min. Flowrate was 0.3 mL/min.\nChromatograms were integrated as HMWP (all peaks eluting before the main peak), main peak (assuming this is monomeric peptide) and if relevant LMWP (low molecular weight products, all peaks eluting after main peak). The amount of HMWP was reported as area relative to total area in percent."}, "[2]": {"assay": "Body mass and body fat content in mouse model of diet-induced obesity (DIO)", "type": "in vivo", "details": "DIO mice; for Blood HbA1c / M. Gastrocnemius / M. Soleus / Body weight at termination / Fat mass change from baseline / Lean mass change from baseline / Relative body weight change at termination: Table 17 study; for Body weight at termination / Fat mass change from baseline / Lean mass change from baseline / Relative body weight change at termination: ± SEM", "method": "SEQ ID NO: 3, SEQ ID NO: 6, SEQ ID NO: 238, SEQ ID NO: 16 and SEQ ID NO: 215 were assessed for their ability to reduce body mass and body fat content in a mouse model of diet-induced obesity (DIO).\nMale C57BL/6JRj mice were obtained from JanVier (JanVier Labs, France) at 5 weeks of age. The animals were group-housed during obesity induction and then single housed 2 weeks prior to study start. They were housed under a 12/12 h dark-light cycle, light off at 3 PM. Room temperature was controlled to 22°C ± 1°C, with 60 % ± 20% humidity. For 22-23 weeks prior to treatment start and throughout the study, the animals had ad libitum access to high-fat diet (60% kcal fat, D12492, Research Diets) and tap water.\nThe animals were randomized according to lean mass (EchoMRI) and body weight. Animals were dosed subcutaneously […] for 30-32 days. In study 1, the animals were dosed with vehicle or SEQ ID NO: 3 (10, 30, 60 or 100 nmol/kg). In study 2, the animals were dosed with vehicle or SEQ ID NO: 6 (10 or 30 nmol/kg), SEQ ID NO: 238 (10 or 30 nmol/kg), SEQ ID NO: 16 (10 or 30 nmol/kg), SEQ ID NO: 215 (10 or 30 nmol/kg) or SEQ ID NO: 3 (30 nmol/kg).\nBody weight and food intake were recorded daily until day 28 and body composition evaluated on day 26 using EchoMRI. At termination, blood for HbA1c analyses were collected and M. gastrocnemius and M. soleus were weighed.\nStatistical significance was evaluated using One-way analysis of variance with Dunnett's multiple comparison test. P < 0.05 was considered statistically significant."}, "[3]": {"biological_target": "T1, hCRHR2a (Homo sapiens, UniProt Q13324)", "T1 construct": "DYK (FLAG); host or cells: CHO-K1, transiently transfected", "T1 sequence (Q13324 1-411)": "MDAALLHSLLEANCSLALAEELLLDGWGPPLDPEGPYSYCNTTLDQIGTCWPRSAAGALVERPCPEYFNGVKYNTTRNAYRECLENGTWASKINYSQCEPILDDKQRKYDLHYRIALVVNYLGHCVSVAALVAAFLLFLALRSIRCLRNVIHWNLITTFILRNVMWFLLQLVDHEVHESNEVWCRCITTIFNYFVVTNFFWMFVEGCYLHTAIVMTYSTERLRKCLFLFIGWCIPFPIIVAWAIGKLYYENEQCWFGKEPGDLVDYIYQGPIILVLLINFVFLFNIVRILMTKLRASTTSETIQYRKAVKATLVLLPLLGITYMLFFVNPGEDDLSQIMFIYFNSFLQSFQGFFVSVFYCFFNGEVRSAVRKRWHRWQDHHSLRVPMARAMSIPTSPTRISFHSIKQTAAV", "assay": "cAMP potency, transiently transfected CHO-K1 cells, hCRHR2a", "type": "cell-based", "details": "transiently transfected CHO-K1, average n=3; read-out: Transient cell system EC50 (nM) hCRHR 2a"}, "[4]": {"biological_target": "T2, hCRHR2b (Homo sapiens, UniProt Q13324)", "T2 construct": "DYK (FLAG); host or cells: CHO-K1, transiently transfected", "T2 sequence (Q13324 1-438 isoform Q13324-2)": "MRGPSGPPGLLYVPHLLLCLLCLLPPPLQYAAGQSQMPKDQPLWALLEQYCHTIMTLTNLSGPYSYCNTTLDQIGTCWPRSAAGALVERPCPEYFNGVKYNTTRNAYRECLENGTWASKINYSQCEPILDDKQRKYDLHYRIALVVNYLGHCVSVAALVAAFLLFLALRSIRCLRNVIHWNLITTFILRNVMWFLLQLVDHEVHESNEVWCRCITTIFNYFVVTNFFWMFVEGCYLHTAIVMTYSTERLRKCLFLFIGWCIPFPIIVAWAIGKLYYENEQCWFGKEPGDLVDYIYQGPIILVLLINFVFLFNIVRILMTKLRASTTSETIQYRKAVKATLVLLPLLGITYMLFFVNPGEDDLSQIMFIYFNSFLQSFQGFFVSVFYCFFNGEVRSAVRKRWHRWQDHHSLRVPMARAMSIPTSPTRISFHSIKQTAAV", "assay": "cAMP potency, transiently transfected CHO-K1 cells, hCRHR2b", "type": "cell-based", "details": "transiently transfected CHO-K1, average n=3; read-out: Transient cell system EC50 (nM) hCRHR 2b"}, "[5]": {"biological_target": "T3, rCRHR2 (Rattus norvegicus, UniProt P47866)", "T3 construct": "DYK (FLAG); host or cells: CHO-K1, transiently transfected", "T3 sequence (P47866 whole entry)": "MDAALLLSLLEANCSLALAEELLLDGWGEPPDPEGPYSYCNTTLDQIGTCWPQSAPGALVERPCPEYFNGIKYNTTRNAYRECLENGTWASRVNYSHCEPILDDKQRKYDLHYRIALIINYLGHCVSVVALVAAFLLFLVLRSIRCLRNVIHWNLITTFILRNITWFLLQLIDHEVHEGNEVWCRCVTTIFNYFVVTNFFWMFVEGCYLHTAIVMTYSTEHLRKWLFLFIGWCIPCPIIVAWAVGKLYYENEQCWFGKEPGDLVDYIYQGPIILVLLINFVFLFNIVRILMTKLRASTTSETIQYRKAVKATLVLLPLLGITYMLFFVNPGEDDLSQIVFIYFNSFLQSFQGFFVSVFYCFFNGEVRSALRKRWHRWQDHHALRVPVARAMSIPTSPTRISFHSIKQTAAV", "assay": "cAMP potency, transiently transfected CHO-K1 cells, rCRHR2", "type": "cell-based", "details": "transiently transfected CHO-K1, average n=3; read-out: Transient cell system EC50 (nM) rCRHR 2", "method": "(§1) Selected peptides were tested for potency on different species (mouse, rat, porcine) using transiently transfected CHO-K1 cells using the general procedure."}, "[6]": {"test_system": "pCRHR2", "assay": "cAMP potency, transiently transfected CHO-K1 cells, pCRHR2", "type": "cell-based, pig", "details": "transiently transfected CHO-K1, average n=3; read-out: Transient cell system EC50 (nM) pCR HR2", "method": "as §1"}}, "note": "Starred links: 1 amine or outer side, 2 acyl side, 3 side chain; linkers in the order of their positions; H or OH if unused. Non-standard residues stand in square brackets, D forms with d. Residues, ends and D or L forms follow the SMILES beside them. Groups on a side chain read outwards from the residue. *: point of attachment. C20 diacid = O=C(O)CCCCCCCCCCCCCCCCCCC(=O)*; γGlu = O=C(O)[C@H](CCC(=O)[*:2])N[*:1]; NMeI = CC[C@H](C)[C@H](NC)C(=O)O; AEEA = NCCOCCOCC(=O)O", "data": [{"smiles": "CC[C@H](C)[C@H](NC)C(=O)N[C@H](C(=O)N[C@@H](CC(C)C)C(=O)N[C@@H](CO)C(=O)N[C@@H](CC(C)C)C(=O)N[C@@H](CC(=O)O)C(=O)N[C@H](C(=O)N1CCC[C@H]1C(=O)N[C@H](C(=O)NCC(=O)N[C@@H](CC(C)C)C(=O)N[C@@H](CC(C)C)C(=O)N[C@@H](CCC(N)=O)C(=O)N[C@H](C(=O)N[C@@H](CC(C)C)C(=O)N[C@@H](CC(C)C)C(=O)N[C@@H](CCC(=O)O)C(=O)N[C@@H](CCC(N)=O)C(=O)N[C@@H](C)C(=O)N[C@@H](CCCNC(=N)N)C(=O)N[C@@H](C)C(=O)N[C@@H](CCCNC(=N)N)C(=O)N[C@@H](C)C(=O)N[C@@H](C)C(=O)N[C@@H](CCCNC(=N)N)C(=O)N[C@@H](CCC(=O)O)C(=O)N[C@@H](CCC(N)=O)C(=O)N[C@@H](C)C(=O)N[C@H](C(=O)N[C@@H](CCCCNC(=O)COCCOCCNC(=O)COCCOCCNC(=O)CC[C@H](NC(=O)CC[C@H](NC(=O)CCCCCCCCCCCCCCCCCCC(=O)O)C(=O)O)C(=O)O)C(=O)N[C@@H](CC(N)=O)C(=O)N[C@@H](C)C(=O)N[C@@H](CCC(=O)O)C(=O)N[C@H](C(=O)N[C@@H](CC(C)C)C(=O)N[C@@H](C)C(=O)N[C@@H](CCC(=O)O)C(=O)N[C@H](C(N)=O)C(C)C)[C@@H](C)CC)[C@@H](C)O)[C@@H](C)CC)[C@@H](C)CC)C(C)C)C(C)C", "note": "[SEQ ID NO: 6] (H-[NMeI]VLSLDVPIGLLQILLEQARARAAREQATK([AEEA-AEEA-γGlu-γGlu-C20 diacid])NAEILAEV-NH2)", "values": [{"measurement": "HMWP formation (SEC analysis) T14-T0 (%)", "setting": "[1]; pH 7.0, 40°C", "result": -0.1, "unit": "%"}, {"measurement": "HMWP formation (SEC analysis) T28-T0 (%)", "setting": "[1]; pH 7.0, 40°C", "result": 0.1, "unit": "%"}, {"measurement": "HMWP formation (SEC analysis) T14-T0 (%)", "setting": "[1]; pH 7.5, 40°C", "result": -0.4, "unit": "%"}, {"measurement": "HMWP formation (SEC analysis) T28-T0 (%)", "setting": "[1]; pH 7.5, 40°C", "result": -0.4, "unit": "%"}, {"measurement": "HMWP formation (SEC analysis) T14-T0 (%)", "setting": "[1]; pH 8.0, 40°C", "result": -0.2, "unit": "%"}, {"measurement": "HMWP formation (SEC analysis) T28-T0 (%)", "setting": "[1]; pH 8.0, 40°C", "result": 0.0, "unit": "%"}, {"measurement": "relative body weight", "setting": "[2]; 28 days, compared to vehicle", "result": "prolonged dose-dependent reduction"}, {"measurement": "Blood HbA1c", "setting": "[2]; 10 nmol/kg", "result": "4.0 ± 0.1", "unit": "%"}, {"measurement": "M. Gastrocnemius", "setting": "[2]; 10 nmol/kg", "result": "0.18 ± 0.004", "unit": "g"}, {"measurement": "M. Soleus", "setting": "[2]; 10 nmol/kg", "result": "0.012 ± 0.0008", "unit": "g"}, {"measurement": "Body weight at termination", "setting": "[2]; 10 nmol/kg", "result": "42.6 ± 1.3", "unit": "g"}, {"measurement": "Fat mass change from baseline", "setting": "[2]; 10 nmol/kg", "result": "-7.0 ± 0.9", "unit": "g"}, {"measurement": "Lean mass change from baseline", "setting": "[2]; 10 nmol/kg", "result": "0.1 ± 0.3", "unit": "g"}, {"measurement": "Relative body weight change at termination", "setting": "[2]; 10 nmol/kg", "result": "89.1 ± 2.0", "unit": "%"}, {"measurement": "Blood HbA1c", "setting": "[2]; 30 nmol/kg", "result": "4.1 ± 0.1", "unit": "%"}, {"measurement": "M. Gastrocnemius", "setting": "[2]; 30 nmol/kg", "result": "0.18 ± 0.001", "unit": "g"}, {"measurement": "M. Soleus", "setting": "[2]; 30 nmol/kg", "result": "0.013 ± 0.0004", "unit": "g"}, {"measurement": "Body weight at termination", "setting": "[2]; 30 nmol/kg", "result": "38 ± 0.5", "unit": "g"}, {"measurement": "Fat mass change from baseline", "setting": "[2]; 30 nmol/kg", "result": "-10.7 ± 0.5", "unit": "g"}, {"measurement": "Lean mass change from baseline", "setting": "[2]; 30 nmol/kg", "result": "-0.1 ± 0.3", "unit": "g"}, {"measurement": "Relative body weight change at termination", "setting": "[2]; 30 nmol/kg", "result": "79.3 ± 1.2", "unit": "%"}, {"measurement": "EC50", "setting": "[3]", "result": 0.023, "unit": "nM"}, {"measurement": "EC50", "setting": "[4]", "result": 0.015, "unit": "nM"}, {"measurement": "EC50", "setting": "[5]", "result": 0.13, "unit": "nM"}, {"measurement": "EC50", "setting": "[6]", "result": 0.03, "unit": "nM"}]}]}
